System: purified human Hsp90
Assay: Binding Assay: fluorescence polarization with BODIPY-labeled geldanamycin
Conditions: BODIPY-GM 10 nM, Hsp90 30 nM
Summary of the method: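 Fluorescence polarization competition with BODIPY-geldanamycin (10 nM final) and human Hsp90 (30 nM final) in HEPES-KOH pH 7.3 buffer with molybdate, NP-40, DTT; 2% DMSO, overnight at room temperature. Read 485/530 nm; percent inhibition from mP normalized to DMSO controls, fluorescent-compound points excluded.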

| % Inhibition at 5 μM Compound Concentration [%] | IC50 [µM] | Structure (SMILES) |
| --- | --- | --- |
|  | 0.095 | Cc1ccccc1CCn1c(Sc2cc3c(cc2Br)OCO3)nc2c(N)ncnc21 [Example 155, 8-(6-Bromo-benzo[1,3]dioxol-5-ylsulfanyl)-9-(2-o-tolyl-ethyl)-9H-purin-6-ylamine] |
| 58 | 0.5 | Nc1ncnc2c1nc(Sc1cc3c(cc1Br)OCO3)n2CCc1cccc2ccccc12 [Example 157, 8-(6-Bromo-benzo[1,3]dioxol-5-ylsulfanyl)-9-(2-naphthalen-1-yl-ethyl)-9H-purin-6-ylamine] |
| 0 |  | CC(=O)c1ccc(CCn2cnc(N)c3nc(Sc4cc5c(cc4Br)OCO5)nc2-3)cc1 [Example 160, 1-(4-{2-[6-amino-8-(6-bromo-benzo[1,3]dioxol-5-ylsulfanyl)-purin-3-yl]-ethyl}-phenyl)-ethanone] |
| 17 | 0.32 | Nc1ncnc2c1nc(Sc1cc3c(cc1Br)OCO3)n2CCc1cccc(F)c1F [Example 161, 8-(6-Bromo-benzo[1,3]dioxol-5-ylsulfanyl)-9-[2-(2,3-difluoro-phenyl)-ethyl]-9H-purin-6-ylamine] |
| 0 |  | Cc1ccc(CCn2cnc(N)c3nc(Sc4cc5c(cc4Br)OCO5)nc2-3)cc1 [Example 164, 8-(6-bromo-benzo[1,3]dioxol-5-ylsulfanyl)-3-(2-p-tolyl-ethyl)-3H-purin-6-ylamine] |
| 60 | 0.3 | Nc1ncnc2c1nc(Sc1cc3c(cc1Br)OCO3)n2CCc1cccc(C(F)(F)F)c1 [Example 165, 8-(6-Bromo-benzo[1,3]dioxol-5-ylsulfanyl)-9-[2-(3-trifluoromethyl-phenyl)-ethyl]-9H-purin-6-ylamine] |
| 3 |  | COc1ccc(OC)c(Sc2nc3c(N)ncn(CCC4CCCCC4)c-3n2)c1 [Example 170, 3-(2-cyclohexyl-ethyl)-8-(2,5-dimethoxy-phenylsulfanyl)-3H-purin-6-ylamine] |
| 44 | > 25 | Nc1ncnc2c1nc(Sc1cc3c(cc1Br)OCO3)n2CCC1CCCCC1 [Example 173, 8-(6-Bromo-benzo[1,3]dioxol-5-ylsulfanyl)-9-(2-cyclohexyl-ethyl)-9H-purin-6-ylamine] |
| 6 |  | COc1ccc(OC)c(Sc2nc3c(N)ncn(CCc4ccc(S(=O)(=O)O)cc4)c-3n2)c1 [Example 176, 4-{2-[6-amino-8-(2,5-dimethoxy-phenylsulfanyl)-purin-3-yl]-ethyl}-benzenesulfonic acid] |
|  | > 25 | COc1ccc(OC)c(Sc2nc3c(N)ncnc3n2CCc2ccc(-c3ccccc3)cc2)c1 [Example 181, 9-(2-Biphenyl-4-yl-ethyl)-8-(2,5-dimethoxy-phenylsulfanyl)-9H-purin-6-ylamine] |
| 0 |  | COc1ccc(OC)c(Sc2nc3c(N)ncn(CCc4ccccc4C(F)(F)F)c-3n2)c1 [Example 184, 8-(2,5-dimethoxy-phenylsulfanyl)-3-[2-(2-trifluoromethyl-phenyl)-ethyl]-3H-purin-6-ylamine] |

Further lines, the compound ahead of its results:

| Structure (SMILES) | % Inhibition at 5 μM Compound Concentration [%] | IC50 [µM] |
| --- | --- | --- |
| Nc1ncn(CCc2cccc(I)c2)c2nc(Sc3cc4c(cc3Br)OCO4)nc1-2 [Example 154, 8-(6-Bromo-benzo[1,3]dioxol-5-ylsulfanyl)-3-[2-(3-iodo-phenyl)-ethyl]-3H-purin-6-ylamine] | >10 |  |
| Cc1ccccc1CCn1cnc(N)c2nc(Sc3cc4c(cc3Br)OCO4)nc1-2 [Example 156, 8-(6-bromo-benzo[1,3]dioxol-5-ylsulfanyl)-3-(2-o-tolyl-ethyl)-3H-purin-6-ylamine] | 16 |  |
| Nc1ncn(CCc2cccc3ccccc23)c2nc(Sc3cc4c(cc3Br)OCO4)nc1-2 [Example 158, 8-(6-bromo-benzo[1,3]dioxol-5-ylsulfanyl)-3-(2-naphthalen-1-yl-ethyl)-3H-purin-6-ylamine] | 0 |  |
| CC(=O)c1ccc(CCn2c(Sc3cc4c(cc3Br)OCO4)nc3c(N)ncnc32)cc1 [Example 159, 1-(4-{2-[6-Amino-8-(6-bromo-benzo[1,3]dioxol-5-ylsulfanyl)-purin-9-yl]-ethyl}-phenyl)-ethanone] | 63 | 0.8 |
| Nc1ncn(CCc2cccc(F)c2F)c2nc(Sc3cc4c(cc3Br)OCO4)nc1-2 [Example 162, 8-(6-bromo-benzo[1,3]dioxol-5-ylsulfanyl)-3-[2-(2,3-difluoro-phenyl)-ethyl]-3H-purin-6-ylamine] | 0 |  |
| Cc1ccc(CCn2c(Sc3cc4c(cc3Br)OCO4)nc3c(N)ncnc32)cc1 [Example 163, 8-(6-Bromo-benzo[1,3]dioxol-5-ylsulfanyl)-9-(2-p-tolyl-ethyl)-9H-purin-6-ylamine] | >10 |  |
| Nc1ncn(CCc2cccc(C(F)(F)F)c2)c2nc(Sc3cc4c(cc3Br)OCO4)nc1-2 [Example 166, 8-(6-Bromo-benzo[1,3]dioxol-5-ylsulfanyl)-3-[2-(3-trifluoromethyl-phenyl)-ethyl]-3H-purin-6-ylamine] | 0 |  |
| COc1ccc(OC)c(Sc2nc3c(N)ncnc3n2CCc2ccc3c(c2)OCO3)c1 [Example 167, 9-(2-Benzo[1,3]dioxol-5-yl-ethyl)-8-(2,5-dimethoxy-phenylsulfanyl)-9H-purin-6-ylamine] | 44 | > 25 |
| COc1ccc(OC)c(Sc2nc3c(N)ncn(CCc4ccc5c(c4)OCO5)c-3n2)c1 [Example 168, 3-(2-benzo[1,3]dioxol-5-yl-ethyl)-8-(2,5-dimethoxy-phenylsulfanyl)-3H-purin-6-ylamine] | 0 |  |
| COc1ccc(OC)c(Sc2nc3c(N)ncnc3n2CCC2CCCCC2)c1 [Example 169, 9-(2-Cyclohexyl-ethyl)-8-(2,5-dimethoxyphenyl-sulfanyl)-9H-purin-6-ylamine] | 37 | 0.47 |
| Nc1ncnc2c1nc(Sc1cc3c(cc1Br)OCO3)n2CCc1ccc(-c2ccccc2)cc1 [Example 171, 9-(2-Biphenyl-4-yl-ethyl)-8-(6-bromo-benzo[1,3]dioxol-5-ylsulfanyl)-9H-purin-6-ylamine] |  | > 25 |
| Nc1ncn(CCc2ccc(-c3ccccc3)cc2)c2nc(Sc3cc4c(cc3Br)OCO4)nc1-2 [Example 172, 3-(2-biphenyl-4-yl-ethyl)-8-(6-bromo-benzo[1,3]dioxol-5-ylsulfanyl)-3H-purin-6-ylamine] | >10 |  |
| Nc1ncn(CCC2CCCCC2)c2nc(Sc3cc4c(cc3Br)OCO4)nc1-2 [Example 174, 8-(6-bromo-benzo[1,3]dioxol-5-ylsulfanyl)-3-(2-cyclohexyl-ethyl)-3H-purin-6-ylamine] | 37 | > 25 |
| COc1ccc(OC)c(Sc2nc3c(N)ncnc3n2CCc2ccc(S(=O)(=O)O)cc2)c1 [Example 175, 4-{2-[6-Amino-8-(2,5-dimethoxy-phenylsulfanyl)-purin-9-yl]-ethyl}-benzenesulfonic acid] | 46 | 14 |
| Nc1ncnc2c1nc(Sc1cc3c(cc1Br)OCO3)n2CC(O)c1ccc(Cl)cc1Cl (stereo not drawn) [Example 177, 2-[6-Amino-8-(6-bromo-benzo[1,3]dioxol-5-ylsulfanyl)-purin-9-yl]-1-(2,4-dichloro-phenyl)-ethanol] | 0 |  |
| Nc1ncn(CC(O)c2ccc(Cl)cc2Cl)c2nc(Sc3cc4c(cc3Br)OCO4)nc1-2 (stereo not drawn) [Example 178, 2-[6-amino-8-(6-bromo-benzo[1,3]dioxol-5-ylsulfanyl)-purin-3-yl]-1-(2,4-dichloro-phenyl)-ethanol] | 9 |  |
| COc1ccc(OC)c(Sc2nc3c(N)ncnc3n2CC(c2ccccc2)C2CCCCC2)c1 (stereo not drawn) [Example 179, 9-(2-Cyclohexyl-2-phenyl-ethyl)-8-(2,5-dimethoxy-phenylsulfanyl)-9H-purin-6-ylamine] | 8 |  |
| COc1ccc(OC)c(Sc2nc3c(N)ncn(CC(c4ccccc4)C4CCCCC4)c-3n2)c1 (stereo not drawn) [Example 180, 3-(2-cyclohexyl-2-phenyl-ethyl)-8-(2,5-dimethoxy-phenylsulfanyl)-3H-purin-6-ylamine] | >10 |  |
| COc1ccc(OC)c(Sc2nc3c(N)ncn(CCc4ccc(-c5ccccc5)cc4)c-3n2)c1 [Example 182, 3-(2-biphenyl-4-yl-ethyl)-8-(2,5-dimethoxy-phenylsulfanyl)-3H-purin-6-ylamine] | >10 |  |
| COc1ccc(OC)c(Sc2nc3c(N)ncnc3n2CCc2ccccc2C(F)(F)F)c1 [Example 183, 8-(2,5-Dimethoxy-phenylsulfanyl)-9-[2-(2-trifluoromethyl-phenyl)-ethyl]-9H-purin-6-ylamine] | 100 | 1.1 |
| COc1ccc(OC)c(Sc2nc3c(N)ncnc3n2CCc2ccc(N(C)C)cc2)c1 [Example 185, 8-(2,5-Dimethoxy-phenylsulfanyl)-9-[2-(4-dimethylamino-phenyl)-ethyl]-9H-purin-6-ylamine] |  | > 2.5 |
| COc1ccc(OC)c(Sc2nc3c(N)ncn(CCc4ccc(N(C)C)cc4)c-3n2)c1 [Example 186, 8-(2,5-dimethoxy-phenylsulfanyl)-3-[2-(4-dimethylamino-phenyl)-ethyl]-3H-purin-6-ylamine] | 0 |  |
| CN(C)c1ccc(CCn2c(Sc3cc4c(cc3Br)OCO4)nc3c(N)ncnc32)cc1 [Example 187, 8-(6-Bromo-benzo[1,3]dioxol-5-ylsulfanyl)-9-[2-(4-dimethylamino-phenyl)-ethyl]-9H-purin-6-ylamine] |  | > 2.5 |
| CN(C)c1ccc(CCn2cnc(N)c3nc(Sc4cc5c(cc4Br)OCO5)nc2-3)cc1 [Example 188, 8-(6-bromo-benzo[1,3]dioxol-5-ylsulfanyl)-3-[2-(4-dimethylamino-phenyl)-ethyl]-3H-purin-6-ylamine] | 21 |  |

Source: patent US7595401B2, “Therapeutic compounds and their use in cancer” (Myriad Pharmaceuticals, Inc., priority 2006, dated 2009)
